Test: Anti-hygroscopic and hygroscopic property by dynamic vapor sorption (DVS)
Format: physicochemical
Settings: raw powders; DVS 37° C., 50 to 95% RH
Protocol: For each SFD preparation prepared in Example 1 and each raw powder (Leu, Man, Tre, FlNa) in compositions, using a Dynamic Vapor Sorption measuring instrument (DVS: Dynamic Vapor Sorption; DVS advantage, Surface Measurement Systems), anti-hygroscopic property and hygroscopic growth from inhalation to the respiratory tract and deep lungs in high humidity were evaluated.
By a DVS, the mass change of a sample filled on one side of the balance-type measuring unit due to the adsorption and desorption of water in a set temperature and humidity environment can be monitored on a second scale. Regarding the setting of conditions for moisture absorption growth evaluation, to reproduce the temperature and humidity environment changes until the powder fine particles reach the deep lungs, the environment before inhalation was set to “temperature: 37° C., relative humidity (RH): 50% (absolute humidity: […])” and the lung environment after inhalation was set to “temperature: 37° C., 95% RH (absolute humidity: 41.62 g/m^3)”.

| mass change rate | SMILES |
| --- | --- |
| ~0.29% | OC[C@@H](O)[C@@H](O)[C@H](O)[C@H](O)CO [Man, D-(−)-mannitol] |
| ~22% | OC[C@H]1O[C@H](O[C@H]2O[C@H](CO)[C@@H](O)[C@H](O)[C@H]2O)[C@H](O)[C@@H](O)[C@@H]1O [Tre, D-(+)-trehalose] |
| about 0.08% | CC(C)C[C@H](N)C(=O)O [Leu, L-leucine] |
